Measurements reported in patent publication US6667278B2, “Non-steroidal mimetics of brassinolide” (University Technologies International Inc., priority 2000, dated 2003).

What was measured:
[1] = tested on: dwarf rice Oryza satina var. Tan-ginbozu; assay: rice leaf lamina inclination bioassay; assay type: in vivo
Method: Mimetics 3-12, along with brassinolide for comparison, were subjected to the rice leaf lamina inclination bioassay^30. This technique is a rapid, highly sensitive and convenient means for detecting and measuring brassinosteroid bioactivity. Strongly active brassinosteroids such as brassinolide can be readily detected at doses as low as 1 ng/plant. The assay is based on the downward movement response of the second leaf lamina angle of rice seedlings to the application of active brassinosteroids. Thus, a decrease in the leaf angle occurs from about 160 degrees (i.e. nearly upright) in control plants to angles of less than 90 degrees when a strong response is measured. A plot of leaf lamina angle vs. the logarithm of the dose in ng provides a convenient indication of bioactivity.
Brassinosteroids show synergy with auxins such as indole-3-acetic acid (IAA) in this bioassay^7,30,31. Thus, co-application of a given dose of the brassinosteroid with IAA generally elicits a similar decrease in the leaf lamina angle as would be observed with a dose one or two orders of magnitude higher of the brassinosteroid alone. […] The bioassays of mimetics 3-12 were therefore run both in the presence and absence of 1000 ng of added IAA and mimetic 11 was also bioassayed in the presence of 5000 ng of IAA.
Mimetics 3-12, along with brassinolide as a standard, were tested for biological activity by means of the rice leaf lamina assay, using a dwarf rice Oryza satina var. Tan-ginbozu, as described^30. The compounds were dissolved in 95% ethanol, except for mimetic 11 where DMSO was used due to poor solubility in ethanol. To a solution of mimetic 11 in 50 microliters of DMSO was added 550 microliters of a 2.5% aqueous solution of Atlas®, an ICI formulating material, to improve uptake. The test solutions were then applied as 0.5 μl microdrops to the rice plants 48 h after planting the germinated seeds on 0.8% water agar. At high doses, several rounds of application of the 0.5 μl microdrops were required to attain the desired dose per plant. Where IAA was a co-treatment, 1,000 or 5,000 ng of IAA was similarly applied per plant ca. 2 h prior to the application of brassinolide and mimetics 3-12. The resultant leaf lamina angle was measured 60-65 h later. For an individual bioassay, each data point is the mean of the leaf angles from ca. 36 plants for doses up to 100 ng and from ca. 24 plants for the 1000 and 10,000 ng doses. Parallel control applications of solvent and IAA (1000 ng) were also carried out. […] Similarly, the results for brassinolide plus IAA, which were reported earlier,^14,16,17a are not shown here for purposes of clarity.

solubility in ethanol = assay type: physicochemical
[2] = tested on: dwarf rice Oryza satina var. Tan-ginbozu; conditions: in vivo; cited from earlier work
rice, beans and others = conditions: applied exogenously; cited from earlier work
[3] = all dosage levels, with or without IAA application
[4] = applied together with IAA in 95% ethanol

With OC1Cc2ccc(C#Cc3ccc4c(c3)CC(O)C(O)C4)cc2CC1O (single isomer, unassigned) [Mimetic 5, (±)-1,2-Bis[6α,7α-dihydroxy-5,6,7,8-tetrahydronaphthyl]ethyne and its Meso Isomer] the “bioactivity in the rice leaf lamina inclination assay” value (“bioactivity” below) [1, 3] was “completely inactive”.
For Oc1cc2c(O)ccc(CCc3ccc(O)c4cc(O)c(O)cc34)c2cc1O [Mimetic 9, 1,2-Bis(4,6,7-trihydroxynaphthyl)ethane], the “bioactivity” value [1, 3] was “no bioactivity”.
With O=C(O)Cc1c[nH]c2ccccc12 [IAA, indole-3-acetic acid, reference compound] the “effect in the bioassay” value ([1]; applied on its own) was “without significant effect”.
In the case of O=C1CC=C(C#CC2=CCC(=O)C3CC(O)C(O)CC23)C2CC(O)C(O)CC12 (mixture of isomers) [Mimetic 10, (±)-1,2-Bis[trans-(4aα,8aβ)-4-oxo-6α,7α-dihydroxy-4a,5,6,7,8,8a-hexahydro-(3H)-naphthyl]ethyne and its Meso Isomer], the “bioactivity” value [1, 3] is reported as “devoid of activity”.
With O=C1CC=C(C=CC2=CCC(=O)C3CC(O)C(O)CC23)C2CC(O)C(O)CC12 (mixture of isomers) [Mimetic 11, (E)-1,2-Bis[trans-(4aα,8aβ)-4-oxo-6α,7α-dihydroxy-4a,5,6,7,8,8a-hexahydro-(3H)-naphthyl]ethene and its Meso Isomer] the “bioactivity” value ([1]; IAA increased to 5000 ng, DMSO diluted with 2.5% aqueous Atlas, compared with 1000 ng IAA) was “even further enhanced”, the “bioactivity” value ([1]; applied together with 1000 ng of IAA, DMSO diluted with 2.5% aqueous Atlas) was “active across a wide range of doses” and the “dose at which significant activity is displayed” value ([1]; with 5000 ng of IAA, DMSO/Atlas) was 0.01 ng. The solubility in ethanol (solubility in ethanol) was “poor”.
For Oc1ccc(C#Cc2ccc(O)c3c2CC(O)C(O)C3)c2c1CC(O)C(O)C2 (single isomer, unassigned) [Mimetic 3, (±)-1,2-Bis[4,6α,7α-trihydroxy-5,6,7,8-tetrahydronaphthyl]ethyne and its Meso Isomer], the “bioactivity” value [1, 4] was “modest, but statistically significant activity” and the “dose that produced a significant bioassay response” value [1, 4] was 10,000 ng.
In the case of OC1Cc2ccc(/C=C/c3ccc4c(c3)CC(O)C(O)C4)cc2CC1O (single isomer, unassigned) [Mimetic 7, (E)-(±)-1,2-Bis[6α,7α-dihydroxy-5,6,7,8-tetrahydronaphthyl]ethene and its Meso Isomer], the “bioactivity” value [1, 3] is reported as “completely inactive”.
For CC(C)[C@H](C)[C@@H](O)[C@H](O)[C@@H](C)[C@H]1CC[C@H]2[C@@H]3COC(=O)[C@H]4C[C@H](O)[C@H](O)C[C@]4(C)[C@H]3CC[C@]12C [brassinolide, (22R, 23R, 24S)-2α,3α,22,23-tetrahydroxy-24-methyl-B-homo-7-oxa-5α-cholestan-6-one], the “dose as low as which readily detected” value [2] is listed as 1 ng/plant and the “dose as low as which biological activity is manifested” value (rice, beans and others) is listed as “one”.
For Oc1cc(C#Cc2ccc3c(c2)CC(O)C(O)C3)cc2c1CC(O)C(O)C2 (racemic) [Mimetic 4, (±)-1-[4,6α,7α-Trihydroxy-5,6,7,8-tetrahydronaphthyl]-2-[6α′,7α∝-dihydroxy-5′,6′,7′,8′-tetrahydronaphthyl]ethyne as Two (±) Pairs], the “bioactivity” value [1, 4] was “modest, but statistically significant activity”.
In the case of Oc1ccc(C=Cc2ccc(O)c3c2CC(O)C(O)C3)c2c1CC(O)C(O)C2 (mixture of isomers) [Mimetic 6, (E)-(±)-1,2-Bis[4,6α,7α-trihydroxy-5,6,7,8-tetrahydronaphthyl]ethene and its Meso Isomer], the “bioactivity” value [1, 4] is reported as “significant bioactivity” and the “dose that produced a significant bioassay response” value [1, 4] is reported as 10000 ng.
With O=C1CCC(=NN=C2CCC(=O)C3CC(O)C(O)CC23)C2CC(O)C(O)CC12 (single isomer, unassigned) [Mimetic 12, 6,7-Dihydroxy-2,3,4a,5,6,7,8,8a-octahydro-4-oxo-naphthalenone Azine (Mixture of Isomers)] the “bioactivity” value [1, 3] was “devoid of activity”.
In the case of Oc1ccc(CCc2ccc(O)c3c2CC(O)C(O)C3)c2c1CC(O)C(O)C2 (single isomer, unassigned) [Mimetic 8, (±)-1,2-Bis[4,6α,7α-trihydroxy-5,6,7,8-tetrahydronaphthyl]ethane and its Meso Isomer], the “bioactivity” value [1, 3] is reported as “no bioactivity”.
